Consider 17 substances from patent publication US8557763B2, “Synthetic peptides that enhance tight junction permeability” (Alba Therapeutics Corporation, priority 2007, dated 2013).

Where no end group is shown, it is not given here. [ ]: non-standard residue; d: D form. dAllylGly = C=CC[C@@H](N)C(=O)O; AllylGly = C=CC[C@H](N)C(=O)O

Type in all cases: cell-based
One data set has as its system HeLa cells. As to the kind of experiment: Assay of cytoskeletal (actin) rearrangement, fluorescence microscopy. The settings on record: 60 minutes, FIG. 11. On the procedure:
FIG. 10 is a fluorescence microscopy analysis showing the effects of FCIGRL (SEQ ID NO:1) and F-(Allyl)GIGRL (SEQ ID NO:2) on actin rearrangement in HeLa cells after 15 minutes and 60 minutes.
Gliadin treated with the peptidases pepsin and trypsin (termed PT-gliadin or PTG) induces a cytoskeletal arrangement in CaCo2 cells grown in monolayers. The rearrangement can be visualized using a Nikon-TE2000 epifluorescence microscope and a 40× objective and Alexa Fluor 555 conjugated phalloidin (Invitrogen, Carlsbad, Calif.), which binds specifically to F-actin. Exposure times were identical for control and agonist treated samples. The figures were generated using Adobe Photoshop CS2 v 9.0.2. The concentration of agonist was as indicated. Tight junction agonists can be identified by their ability to induce the cytoskeletal rearrangement as shown by the effects of peptide FCIGRL, a known tight junction agonist. FIGS. 3-6 and 8-11 show the cytoskeletal rearrangements induced by exemplary tight junction agonists of the invention, including with respect to the distribution of F-actin and the tight junction protein ZO-1.

Data set [1] deals with CaCo2 monolayers. As to the kind of experiment: Lucifer Yellow (LY) permeability assay through CaCo2 monolayers. Also on record: key to Enhanced LY permeability: + indicates an enhancement of the permeability of the tight junctions were observed; − indicates no enhancement of permeability was observed. The settings on record: for Enhanced LY permeability: CaCo2 monolayers, Lucifer Yellow flux.

The subject of data set [2] is CaCo2 monolayers. As to the kind of experiment: Trans Epithelial Electric Resistance (TEER) across CaCo2 monolayers. More on the design: key to Reduced TEER: + indicates an enhancement of the permeability of the tight junctions were observed; − indicates no enhancement of permeability was observed. The settings on record: for Reduced TEER: CaCo2 monolayers.

“Phe−AllylGly−Ile−Gly−Arg−Leu−OH [SEQ ID NO: 2]”: the “actin rearrangement in HeLa cells” value with HeLa cells is given as “actin cytoskeletal rearrangement to the borderline of cells”.
Turning to “4 (F[dAllylGly]IGR-NH2; N-terminus assumed; SMILES C=CC[C@@H](NC(=O)[C@@H](N)Cc1ccccc1)C(=O)N[C@H](C(=O)NCC(=O)N[C@@H](CCCNC(=N)N)C(N)=O)[C@@H](C)CC) [compound 4]”, the “Enhanced LY permeability” value with CaCo2 monolayers [1] is “−”. The “Reduced TEER” value in the data set with CaCo2 monolayers [2] is “−”.
Consider “13 (G[AllylGly]IGRL; not fully specified; printed as Gly−AllylGly−Ile−Gly−Arg−Leu−NR2) [compound 13]”, for which the “Enhanced LY permeability” value in the data set on CaCo2 monolayers [1] is reported as “−”. Besides, in the data set with CaCo2 monolayers [2], the “Reduced TEER” value was “−”.
For the substance “17 (A[AllylGly]IGRL-NH2; N-terminus assumed; SMILES C=CC[C@H](NC(=O)[C@H](C)N)C(=O)N[C@H](C(=O)NCC(=O)N[C@@H](CCCNC(=N)N)C(=O)N[C@@H](CC(C)C)C(N)=O)[C@@H](C)CC) [compound 17]”, the “Enhanced LY permeability” value in the data set on CaCo2 monolayers [1] is listed as “−”. Further, in the data set on CaCo2 monolayers [2], the “Reduced TEER” value is on record as “−”.
“49 (F[AllylGly]IFRL-NH2; N-terminus assumed; SMILES C=CC[C@H](NC(=O)[C@@H](N)Cc1ccccc1)C(=O)N[C@H](C(=O)N[C@@H](Cc1ccccc1)C(=O)N[C@@H](CCCNC(=N)N)C(=O)N[C@@H](CC(C)C)C(N)=O)[C@@H](C)CC) [compound 49]”: the “Enhanced LY permeability” value in the data set with CaCo2 monolayers [1] is given as “+”. In the data set with CaCo2 monolayers [2], the “Reduced TEER” value was “+”.
Turning to “54 (F[AllylGly]IVRL-NH2; N-terminus assumed; SMILES C=CC[C@H](NC(=O)[C@@H](N)Cc1ccccc1)C(=O)N[C@H](C(=O)N[C@H](C(=O)N[C@@H](CCCNC(=N)N)C(=O)N[C@@H](CC(C)C)C(N)=O)C(C)C)[C@@H](C)CC) [compound 54]”, the “Enhanced LY permeability” value in the data set with CaCo2 monolayers [1] was “−”. Moreover, the “Reduced TEER” value in the data set with CaCo2 monolayers [2] is on record as “+”.
For the substance “8 (S[AllylGly]IGRL-NH2; N-terminus assumed; SMILES C=CC[C@H](NC(=O)[C@@H](N)CO)C(=O)N[C@H](C(=O)NCC(=O)N[C@@H](CCCNC(=N)N)C(=O)N[C@@H](CC(C)C)C(N)=O)[C@@H](C)CC) [compound 8]”, the “Enhanced LY permeability” value in the data set on CaCo2 monolayers [1] is listed as “−”. Further, in the data set with CaCo2 monolayers [2], the “Reduced TEER” value is “−”.
Consider “86 (F[AllylGly]IGRK-NH2; N-terminus assumed; SMILES C=CC[C@H](NC(=O)[C@@H](N)Cc1ccccc1)C(=O)N[C@H](C(=O)NCC(=O)N[C@@H](CCCNC(=N)N)C(=O)N[C@@H](CCCCN)C(N)=O)[C@@H](C)CC) [compound 86]”, for which, in the data set on CaCo2 monolayers [1], the “Enhanced LY permeability” value was “+”. The “Reduced TEER” value in the data set on CaCo2 monolayers [2] is listed as “−”.
In the same order, the values of “75 (F[AllylGly]IGRR-NH2; N-terminus assumed; SMILES C=CC[C@H](NC(=O)[C@@H](N)Cc1ccccc1)C(=O)N[C@H](C(=O)NCC(=O)N[C@@H](CCCNC(=N)N)C(=O)N[C@@H](CCCNC(=N)N)C(N)=O)[C@@H](C)CC) [compound 75]” are “+” and “−”.
As for “FCIGRL [SEQ ID NO: 1, Phe−Cys−Ile−Gly−Arg−Leu, reference compound]”, the “enhancement of Lucifer Yellow permeability through CaCo2 monolayers” value in the data set on CaCo2 monolayers [1] (compared to vehicle alone) is listed as 51 fold. The “decrease in TEER across CaCo2 monolayers” value in the data set on CaCo2 monolayers [2] (compared to vehicle alone) is 16 fold.
“62 (F[AllylGly]IGKL-NH2; N-terminus assumed; SMILES C=CC[C@H](NC(=O)[C@@H](N)Cc1ccccc1)C(=O)N[C@H](C(=O)NCC(=O)N[C@@H](CCCCN)C(=O)N[C@@H](CC(C)C)C(N)=O)[C@@H](C)CC) [compound 62]”: the “Enhanced LY permeability” value with CaCo2 monolayers [1] was “+”. The “Reduced TEER” value with CaCo2 monolayers [2] is on record as “+”.
For the substance “88 (F[AllylGly]IGRW-NH2; N-terminus assumed; SMILES C=CC[C@H](NC(=O)[C@@H](N)Cc1ccccc1)C(=O)N[C@H](C(=O)NCC(=O)N[C@@H](CCCNC(=N)N)C(=O)N[C@@H](Cc1c[nH]c2ccccc12)C(N)=O)[C@@H](C)CC) [compound 88]”, the “Enhanced LY permeability” value with CaCo2 monolayers [1] is recorded as “+”. Further, the “Reduced TEER” value in the data set on CaCo2 monolayers [2] was “+”.
Consider “71 (F[AllylGly]IGPL-NH2; N-terminus assumed; SMILES C=CC[C@H](NC(=O)[C@@H](N)Cc1ccccc1)C(=O)N[C@H](C(=O)NCC(=O)N1CCC[C@H]1C(=O)N[C@@H](CC(C)C)C(N)=O)[C@@H](C)CC) [compound 71]”, for which the “Enhanced LY permeability” value in the data set with CaCo2 monolayers [1] is given as “+”. The “Reduced TEER” value in the data set with CaCo2 monolayers [2] is “−”.
For the substance “1 (FCIGRL; Peptide tight junction agonist) [compound 1]”, in the data set with CaCo2 monolayers [1], the “Enhanced LY permeability” value is recorded as “+”. The “Reduced TEER” value in the data set with CaCo2 monolayers [2] was “+”.
“31 (F[AllylGly]HGRL-NH2; N-terminus assumed; SMILES C=CC[C@H](NC(=O)[C@@H](N)Cc1ccccc1)C(=O)N[C@@H](Cc1c[nH]cn1)C(=O)NCC(=O)N[C@@H](CCCNC(=N)N)C(=O)N[C@@H](CC(C)C)C(N)=O) [compound 31]”: the “Enhanced LY permeability” value in the data set with CaCo2 monolayers [1] is on record as “+”. The “Reduced TEER” value in the data set on CaCo2 monolayers [2] is “+”.
For “87 (F[AllylGly]IGRI-NH2; N-terminus assumed; SMILES C=CC[C@H](NC(=O)[C@@H](N)Cc1ccccc1)C(=O)N[C@H](C(=O)NCC(=O)N[C@@H](CCCNC(=N)N)C(=O)N[C@H](C(N)=O)[C@@H](C)CC)[C@@H](C)CC) [compound 87]”, the “Enhanced LY permeability” value in the data set on CaCo2 monolayers [1] is listed as “+”. For the same substance, in the data set with CaCo2 monolayers [2], the “Reduced TEER” value is recorded as “+”.
“24 (F[AllylGly]TGRL-NH2; N-terminus assumed; SMILES C=CC[C@H](NC(=O)[C@@H](N)Cc1ccccc1)C(=O)N[C@H](C(=O)NCC(=O)N[C@@H](CCCNC(=N)N)C(=O)N[C@@H](CC(C)C)C(N)=O)[C@@H](C)O) [compound 24]”: the “Enhanced LY permeability” value in the data set with CaCo2 monolayers [1] is recorded as “−”. The “Reduced TEER” value with CaCo2 monolayers [2] is on record as “−”.
